For 37 compounds, IC50 results are on record in patent US9902696B2, “1,4-substituted piperidine derivatives” (Cephalon, Inc., priority 2015, dated 2018).

Where a name gives a salt, the structure may show the parent alone.

T1 sequence (P49327 whole entry): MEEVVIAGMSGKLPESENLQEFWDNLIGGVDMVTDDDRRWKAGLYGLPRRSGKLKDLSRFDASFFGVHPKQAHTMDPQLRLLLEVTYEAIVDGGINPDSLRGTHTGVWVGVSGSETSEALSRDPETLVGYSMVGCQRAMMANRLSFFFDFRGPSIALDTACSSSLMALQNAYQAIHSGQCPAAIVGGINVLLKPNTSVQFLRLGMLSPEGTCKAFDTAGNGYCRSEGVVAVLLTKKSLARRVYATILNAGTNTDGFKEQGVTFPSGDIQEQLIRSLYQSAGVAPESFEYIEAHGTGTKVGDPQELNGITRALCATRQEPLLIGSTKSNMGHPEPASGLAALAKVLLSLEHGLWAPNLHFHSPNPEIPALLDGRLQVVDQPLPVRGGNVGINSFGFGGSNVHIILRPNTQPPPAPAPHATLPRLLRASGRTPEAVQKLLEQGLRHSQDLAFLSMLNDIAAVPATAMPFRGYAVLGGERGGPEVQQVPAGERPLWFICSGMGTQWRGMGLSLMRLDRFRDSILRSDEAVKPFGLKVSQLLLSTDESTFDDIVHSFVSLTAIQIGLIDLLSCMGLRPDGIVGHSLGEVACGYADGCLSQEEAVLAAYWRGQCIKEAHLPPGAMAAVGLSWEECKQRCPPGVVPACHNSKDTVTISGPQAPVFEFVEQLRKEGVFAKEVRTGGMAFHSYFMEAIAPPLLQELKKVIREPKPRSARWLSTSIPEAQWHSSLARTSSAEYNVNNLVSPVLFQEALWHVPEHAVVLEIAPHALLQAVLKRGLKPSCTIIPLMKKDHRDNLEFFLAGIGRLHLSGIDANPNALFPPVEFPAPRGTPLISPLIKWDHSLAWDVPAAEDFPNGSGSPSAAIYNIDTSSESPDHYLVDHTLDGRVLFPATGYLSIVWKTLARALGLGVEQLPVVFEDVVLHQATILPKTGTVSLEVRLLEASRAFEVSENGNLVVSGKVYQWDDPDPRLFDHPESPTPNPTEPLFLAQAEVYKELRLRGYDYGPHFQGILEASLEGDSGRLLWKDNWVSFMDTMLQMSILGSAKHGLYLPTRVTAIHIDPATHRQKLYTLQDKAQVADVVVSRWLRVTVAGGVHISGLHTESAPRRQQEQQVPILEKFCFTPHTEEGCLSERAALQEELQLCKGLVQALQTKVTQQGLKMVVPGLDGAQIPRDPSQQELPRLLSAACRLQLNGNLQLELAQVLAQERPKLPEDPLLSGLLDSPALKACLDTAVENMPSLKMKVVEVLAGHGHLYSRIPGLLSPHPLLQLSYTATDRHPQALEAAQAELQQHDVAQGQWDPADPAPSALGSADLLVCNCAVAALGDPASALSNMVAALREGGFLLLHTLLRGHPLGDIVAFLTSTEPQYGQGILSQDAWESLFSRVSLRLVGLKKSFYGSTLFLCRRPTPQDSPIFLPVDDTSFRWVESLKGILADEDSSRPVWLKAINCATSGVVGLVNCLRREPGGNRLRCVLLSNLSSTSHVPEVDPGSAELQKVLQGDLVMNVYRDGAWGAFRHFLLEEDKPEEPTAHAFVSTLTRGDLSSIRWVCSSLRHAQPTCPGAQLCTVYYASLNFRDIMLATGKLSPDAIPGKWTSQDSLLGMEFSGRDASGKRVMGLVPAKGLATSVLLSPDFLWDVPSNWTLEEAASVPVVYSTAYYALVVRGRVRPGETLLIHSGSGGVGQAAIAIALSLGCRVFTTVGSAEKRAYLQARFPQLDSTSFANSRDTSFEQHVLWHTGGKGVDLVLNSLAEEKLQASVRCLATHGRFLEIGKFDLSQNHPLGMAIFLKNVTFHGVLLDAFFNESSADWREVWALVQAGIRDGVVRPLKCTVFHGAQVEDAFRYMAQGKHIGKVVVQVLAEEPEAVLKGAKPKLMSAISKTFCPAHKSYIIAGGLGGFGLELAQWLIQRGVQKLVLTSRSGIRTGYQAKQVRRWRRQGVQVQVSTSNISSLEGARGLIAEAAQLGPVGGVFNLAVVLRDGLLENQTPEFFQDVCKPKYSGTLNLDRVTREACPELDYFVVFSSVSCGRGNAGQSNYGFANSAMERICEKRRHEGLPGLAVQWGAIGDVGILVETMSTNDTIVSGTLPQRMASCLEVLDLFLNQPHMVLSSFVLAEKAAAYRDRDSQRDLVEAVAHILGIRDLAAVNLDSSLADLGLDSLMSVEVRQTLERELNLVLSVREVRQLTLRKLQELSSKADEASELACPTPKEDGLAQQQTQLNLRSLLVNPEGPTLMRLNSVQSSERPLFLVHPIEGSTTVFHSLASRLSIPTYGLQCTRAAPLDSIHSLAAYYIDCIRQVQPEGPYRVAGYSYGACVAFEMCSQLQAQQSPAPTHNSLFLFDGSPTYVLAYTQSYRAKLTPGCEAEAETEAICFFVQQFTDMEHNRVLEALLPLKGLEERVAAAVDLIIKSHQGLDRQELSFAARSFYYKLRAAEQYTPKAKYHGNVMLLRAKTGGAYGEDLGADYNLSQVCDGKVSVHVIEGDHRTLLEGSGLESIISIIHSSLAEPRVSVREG

This experiment has as its target T1, recombinant human baculovirus-expressed GST-tagged FASN (Homo sapiens, UniProt P49327).
T1 construct: GST
The experiment can be described thus: FASN enzyme activity assay, fluorescence-based detection of CoA with CPM. Type of experiment: biochemical. Conditions: 5 nM FASN, 150 μM NADPH, 10 μM acetyl-CoA, 25 μM malonyl-CoA, 90 minutes incubation; read-out: IC50 data for Compounds of Formulae I-V/V(a): Activity. The procedure, abridged:
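Human GST-tagged FASN, baculovirus-expressed (5 nM), in 50 mM HEPES pH 7.5 with 150 μM NADPH, 10 μM acetyl-CoA, 25 μM malonyl-CoA, 0.5% DMSO; malonyl-CoA-started, 90 min. Released CoA detected with CPM (50 μM dilution), 30 min, fluorescence ex 390/em 530. IC50 from variable-slope sigmoidal fit of % inhibition versus log concentration.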
With `CCC(=O)N1CCC(Oc2ccc(-c3ccc4sccc4c3)cc2)CC1` [Example 247, 1-[4-(4-Benzo[b]thiophen-5-yl-phenoxy)-piperidin-1-yl]-propan-1-one], the IC50 was 100 to 999 nM.
The value for `CCC(=O)N1CCC(Oc2ccc(-c3n[nH]c4ccccc34)cc2)CC1` [Example 248, 1-{4-[4-(1H-Indazol-3-yl)-phenoxy]-piperidin-1-yl}-propan-1-one] was 100 to 999 nM; that for `CCC(=O)N1CCC(Oc2ccc(-c3ccc4cnn(C)c4c3)cc2)CC1` [Example 249, 1-{4-[4-(1-Methyl-1H-indazol-6-yl)-phenoxy]-piperidin-1-yl}-propan-1-one, TFA salt] was 100 to 999 nM; that for `CCC(=O)N1CCC(Oc2ccc(-c3cnc4sccc4c3)cc2)CC1` [Example 250, 1-[4-(4-Thieno[2,3-b]pyridin-5-yl-phenoxy)-piperidin-1-yl]-propan-1-one, TFA salt] was 1 to 99 nM.
The value for `CCC(=O)N1CCC(Oc2ccc(-c3ccc4cn(C)nc4c3)cc2)CC1` [Example 251, 1-{4-[4-(2-Methyl-2H-indazol-6-yl)-phenoxy]-piperidin-1-yl}-propan-1-one] was 100 to 999 nM; that for `CCC(=O)N1CCC(Oc2ccc(-c3cnc4ncccc4c3)cc2)CC1` [Example 252, 1-[4-(4-[1,8]Naphthyridin-3-yl-phenoxy)-piperidin-1-yl]-propan-1-one, TFA salt] was 100 to 999 nM; that for `CCC(=O)N1CCC(Oc2ccc(-c3ccc4ccc(C)nc4c3)cc2)CC1` [Example 253, 1-{4-[4-(2-Methylquinolin-7-yl)-phenoxy]-piperidin-1-yl}-propan-1-one, TFA salt] was 1000 to 10000 nM.
The value for `O=C([C@H]1CCCO1)N1CCC(Oc2ccc(-c3cnc4sccc4c3)cc2)CC1` [Example 254, (R)-Tetrahydrofuran-2-yl-[4-(4-thieno[2,3-b]pyridin-5-yl-phenoxy)-piperidin-1-yl]-methanone, TFA salt] was 1 to 99 nM.
`O=C(C1CC1)N1CCC(Oc2ccc(-c3cnc4sccc4c3)cc2)CC1` [Example 255, Cyclopropyl-[4-(4-thieno[2,3-b]pyridin-5-yl-phenoxy)-piperidin-1-yl]-methanone, TFA salt]: the IC50 lay in the range of 1 to 99 nM.
The value for `CCC(=O)N1CCC(Oc2ccc(-c3ccc4nccn4c3)cc2)CC1` [Example 256, 1-[4-(4-Imidazo[1,2-a]pyridin-6-yl-phenoxy)-piperidin-1-yl]-propan-1-one, TFA salt] was 100 to 999 nM.
The value for `O=C([C@H]1CCCO1)N1CCC(Oc2ccc(-c3ccc4c(Cl)ccnc4c3)cc2)CC1` [Example 257, {4-[4-(4-Chloroquinolin-7-yl)-phenoxy]-piperidin-1-yl}-(R)-tetrahydro-furan-2-yl-methanone, TFA salt] was 1 to 99 nM; that for `O=C(C1CC1)N1CCC(Oc2ccc(-c3ccc4c(Cl)ccnc4c3)cc2)CC1` [Example 258, {4-[4-(4-Chloroquinolin-7-yl)-phenoxy]-piperidin-1-yl}-cyclopropyl-methanone, TFA salt] was 100 to 999 nM; that for `CCC(=O)N1CCC(Oc2ccc(-c3ccc4c(Cl)ccnc4c3)cc2)CC1` [Example 259, 1-{4-[4-(4-Chloroquinolin-7-yl)-phenoxy]-piperidin-1-yl}-propan-1-one, TFA salt] was 100 to 999 nM.
The value for `O=C([C@H]1CCCO1)N1CCC(Oc2ccc(-c3ccc4cccnc4c3Cl)cc2)CC1` [Example 260, {4-[4-(8-Chloro-quinolin-7-yl)-phenoxy]-piperidin-1-yl}-(R)-tetrahydro-furan-2-yl-methanone, TFA salt] was 1 to 99 nM; that for `CCC(=O)N1CCC(Oc2ccc(-c3ccc4cccnc4c3Cl)cc2)CC1` [Example 261, 1-{4-[4-(8-Chloroquinolin-7-yl)-phenoxy]-piperidin-1-yl}-propan-1-one] was 1 to 99 nM.
As for `COc1ccc2cc(-c3ccc(OC4CCN(C(=O)[C@H]5CCCO5)CC4)cc3)cnc2c1` [Example 262, {4-[4-(7-Methoxyquinolin-3-yl)-phenoxy]-piperidin-1-yl}-(R)-tetrahydro-furan-2-yl-methanone], the IC50 was 1 to 99 nM.
In the case of `O=C([C@H]1CCCO1)N1CCC(Oc2ccc(-c3cnc4ccsc4c3)cc2)CC1` [Example 263, (R)-Tetrahydrofuran-2-yl-[4-(4-thieno[3,2-b]pyridin-6-yl-phenoxy)-piperidin-1-yl]-methanone, TFA salt] it was 1 to 99 nM; in that of `CCC(=O)N1CCC(Oc2ccc(-c3cnc4ccsc4c3)cc2)CC1` [Example 264, 1-[4-(4-Thieno[3,2-b]pyridin-6-yl-phenoxy)-piperidin-1-yl]-propan-1-one, TFA salt], 1000 to 10000 nM; in that of `O=C([C@H]1CCCO1)N1CCC(Oc2ccc(-c3ccc4cc(Cl)cnc4c3)cc2)CC1` [Example 265, {4-[4-(3-Chloroquinolin-7-yl)-phenoxy]-piperidin-1-yl}-(R)-tetrahydro-furan-2-yl-methanone, TFA salt], 1 to 99 nM.
In the case of `CCC(=O)N1CCC(Oc2ccc(-c3ccc4cc(Cl)cnc4c3)cc2)CC1` [Example 266, 1-{4-[4-(3-Chloroquinolin-7-yl)-phenoxy]-piperidin-1-yl}-propan-1-one, TFA salt] it was 100 to 999 nM; in that of `O=C([C@H]1CCCO1)N1CCC(Oc2ccc(-c3ccc4scnc4c3)cc2)CC1` [Example 267, [4-(4-Benzothiazol-5-yl-phenoxy)-piperidin-1-yl]-(R)-tetrahydrofuran-2-yl-methanone, TFA salt], 1 to 99 nM; in that of `O=C(C1CC1)N1CCC(Oc2ccc(-c3ccc4scnc4c3)cc2)CC1` [Example 268, [4-(4-Benzothiazol-5-yl-phenoxy)-piperidin-1-yl]-cyclopropylmethanone, TFA salt], 1000 to 10000 nM.
With `CCC(=O)N1CCC(Oc2ccc(-c3ccc4scnc4c3)cc2)CC1` [Example 269, 1-[4-(4-Benzothiazol-5-yl-phenoxy)-piperidin-1-yl]-propan-1-one; TFA salt], the IC50 was 100 to 999 nM.
In the case of `Cn1ncc2ccc(-c3ccc(OC4CCN(C(=O)C5CC5)CC4)cc3)cc21` [Example 270, Cyclopropyl-{4-[4-(1-methyl-1H-indazol-6-yl)-phenoxy]-piperidin-1-yl}-methanone. TFA salt] it was 100 to 999 nM; in that of `Cn1ncc2ccc(-c3ccc(OC4CCN(C(=O)C5CCC5)CC4)cc3)cc21` [Example 271, Cyclobutyl-{4-[4-(1-methyl-1H-indazol-6-yl)-phenoxy]-piperidin-1-yl}-methanone, TFA salt], 100 to 999 nM; in that of `COc1c(-c2ccc(OC3CCN(C(=O)[C@H]4CCCO4)CC3)cc2)ccc2cccnc12` [Example 272, {4-[4-(8-Methoxyquinolin-7-yl)-phenoxy]-piperidin-1-yl}-(R)-tetrahydro-furan-2-yl-methanone, TFA salt], 1 to 99 nM.
In the case of `CCC(=O)N1CCC(Oc2ccc(-c3ccc4cccnc4c3OC)cc2)CC1` [Example 273, 1-{4-[4-(8-Methoxyquinolin-7-yl)-phenoxy]-piperidin-1-yl}-propan-1-one, TFA salt] it was 1 to 99 nM.
`COc1c(-c2ccc(OC3CCN(C(=O)C4CC4)CC3)cc2)ccc2cccnc12` [Example 274, Cyclopropyl-{4-[4-(8-methoxyquinolin-7-yl)-phenoxy]-piperidin-1-yl}-methanone, HCl]: the IC50 was in the range of 1 to 99 nM.
The value for `Cc1cc2cccnc2cc1-c1ccc(OC2CCN(C(=O)[C@H]3CCCO3)CC2)cc1` [Example 275, {4-[4-(6-Methylquinolin-7-yl)-phenoxy]-piperidin-1-yl}-(R)-tetrahydro-furan-2-yl-methanone] was 100 to 999 nM; that for `CCC(=O)N1CCC(Oc2ccc(-c3cc4ncccc4cc3C)cc2)CC1` [Example 276, 1-{4-[4-(6-Methylquinolin-7-yl)-phenoxy]-piperidin-1-yl}-propan-1-one] was 1000 to 10000 nM; that for `CCC(=O)N1CCC(Oc2ccc(-c3ccc4cc(C#N)cnc4c3)cc2)CC1` [Example 277, 7-[4-(1-Propionyl-piperidin-4-yloxy)-phenyl]-quinoline-3-carbonitrile] was 100 to 999 nM.
In the case of `N#Cc1cnc2cc(-c3ccc(OC4CCN(C(=O)[C@H]5CCCO5)CC4)cc3)ccc2c1` [Example 278, 7-{4-[1-((R)-Tetrahydrofuran-2-carbonyl)-piperidin-4-yloxy]-phenyl}-quinoline-3-carbonitrile] it was 1 to 99 nM.
In the case of `N#Cc1cnc2cc(-c3ccc(OC4CCN(C(=O)C5CC5)CC4)cc3)ccc2c1` [Example 279, 7-[4-(1-Cyclopropanecarbonyl-piperidin-4-yloxy)-phenyl]-quinoline-3-carbonitrile] it was 100 to 999 nM; in that of `CCC(=O)N1CCC(Oc2ccc(-c3ccc4cc(C)cnc4c3)cc2)CC1` [Example 280, 1-{4-[4-(3-Methylquinolin-7-yl)-phenoxy]-piperidin-1-yl}-propan-1-one], 1 to 99 nM; in that of `Cc1cnc2cc(-c3ccc(OC4CCN(C(=O)[C@H]5CCCO5)CC4)cc3)ccc2c1` [Example 281, {4-[4-(3-Methylquinolin-7-yl)-phenoxy]-piperidin-1-yl}-(R)-tetrahydro-furan-2-yl-methanone], 1000 to 10000 nM.
As to `Cc1cnc2cc(-c3ccc(OC4CCN(C(=O)C5CC5)CC4)cc3)ccc2c1` [Example 282, Cyclopropyl-{4-[4-(3-methylquinolin-7-yl)-phenoxy]-piperidin-1-yl}-methanone], the IC50 lay within 1000 to 10000 nM.
In the case of `Cc1cc(-c2ccc(OC3CCN(C(=O)[C@H]4CCCO4)CC3)cc2)cn2ccnc12` [Example 283, {4-[4-(8-Methylimidazo[1,2-a]pyridin-6-yl)-phenoxy]-piperidin-1-yl}-(R)-tetrahydrofuran-2-yl-methanone] it was 1 to 99 nM.
